# Results from ChEMBL document CHEMBL3046424, “Growth inhibitory effects on fall armyworm Spodoptera frugiperda of some limonoids isolated from Cedrela spp. (Meliaceae)” (2000).
# What was measured:
# Format in all cases: functional
# [1] = system: Spodoptera frugiperda; experiment: Insecticidal activity against Spodoptera frugiperda (fall armyworm) assessed as mean length at 10 ug/ml in artificial diet measured after 7 days (reference value: 28 +/- 4.1 mg)
# [2] = system: Spodoptera frugiperda; experiment: Insecticidal activity against Spodoptera frugiperda (fall armyworm) assessed as mean length at 15 ug/ml in artificial diet measured after 7 days (reference value: […])
# [3] = system: Spodoptera frugiperda; experiment: Insecticidal activity against Spodoptera frugiperda (fall armyworm) assessed as mean length at 25 ug/ml in artificial diet measured after 7 days (reference value: 28 +/- 4.1 mg)
# [4] = system: Spodoptera frugiperda; experiment: Insecticidal activity against Spodoptera frugiperda (fall armyworm) assessed as mean weight gain at 5 ug/ml in artificial diet measured after 7 days (reference value: 469.5 +/- 6.59 mg)
# [5] = system: Spodoptera frugiperda; experiment: Insecticidal activity against Spodoptera frugiperda (fall armyworm) assessed as mean emergence at 25 ug/ml in artificial diet (reference value: 83.3 %)
# [6] = system: Spodoptera frugiperda; experiment: Insecticidal activity against Spodoptera frugiperda (fall armyworm) assessed as mean emergence at 52 ug/ml in artificial diet (reference value: 83.3 %)
# [7] = system: Spodoptera frugiperda; experiment: Insecticidal activity against Spodoptera frugiperda (fall armyworm) assessed as mean pupation at 25 ug/ml in artificial diet (reference value: 87.5 %)
# [8] = system: Spodoptera frugiperda; experiment: Insecticidal activity against Spodoptera frugiperda (fall armyworm) assessed as mean pupation at 52 ug/ml in artificial diet (reference value: 87.5 %)
# [9] = system: Spodoptera frugiperda; experiment: Insecticidal activity against Spodoptera frugiperda (fall armyworm) assessed as mean emergence days at 5 ug/ml in artificial diet (reference value: 33 days)
# [10] = system: Spodoptera frugiperda; experiment: Insecticidal activity against Spodoptera frugiperda (fall armyworm) assessed as mean emergence days at 25 ug/ml in artificial diet (reference value: 33 days)
# [11] = system: Spodoptera frugiperda; experiment: Insecticidal activity against Spodoptera frugiperda (fall armyworm) assessed as mean emergence days at 52 ug/ml in artificial diet (reference value: 33 days)
# [12] = system: Spodoptera frugiperda; experiment: Insecticidal activity against Spodoptera frugiperda (fall armyworm) assessed as mean emergence at 5 ug/ml in artificial diet (reference value: 83.3 %)
# [13] = system: Spodoptera frugiperda; experiment: Insecticidal activity against Spodoptera frugiperda (fall armyworm) assessed as mean time to pupation at 5 ug/ml in artificial diet (reference value: 22 days)
# [14] = system: Spodoptera frugiperda; experiment: Insecticidal activity against Spodoptera frugiperda (fall armyworm) assessed as mean time to pupation at 25 ug/ml in artificial diet (reference value: 22 days)
# [15] = system: Spodoptera frugiperda; experiment: Insecticidal activity against Spodoptera frugiperda (fall armyworm) assessed as mean time to pupation at 52 ug/ml in artificial diet (reference value: 22 days)
# [16] = system: Spodoptera frugiperda; experiment: Insecticidal activity against Spodoptera frugiperda (fall armyworm) assessed as mean weight of pupae at 5 ug/ml in artificial diet (reference value: 281.5 +/- 10.3 mg)
# [17] = system: Spodoptera frugiperda; experiment: Insecticidal activity against Spodoptera frugiperda (fall armyworm) assessed as mean weight of pupae at 25 ug/ml in artificial diet (reference value: 281.5 +/- 10.3 mg)
# [18] = system: Spodoptera frugiperda; experiment: Insecticidal activity against Spodoptera frugiperda (fall armyworm) assessed as mean weight of pupae at 52 ug/ml in artificial diet (reference value: 281.5 +/- 10.3 mg)
# [19] = system: Spodoptera frugiperda; experiment: Insecticidal activity against Spodoptera frugiperda (fall armyworm) assessed as mean pupation at 5 ug/ml in artificial diet (reference value: 87.5 %)
# [20] = system: Spodoptera frugiperda; experiment: Insecticidal activity against Spodoptera frugiperda (fall armyworm) assessed as mean length at 39 ug/ml in artificial diet measured after 7 days (reference value: 28 +/- 4.1 mg)
# [21] = system: Spodoptera frugiperda; experiment: Insecticidal activity against Spodoptera frugiperda (fall armyworm) assessed as mean length at 52 ug/ml in artificial diet measured after 7 days (reference value: 28 +/- 4.1 mg)
# [22] = system: Spodoptera frugiperda; experiment: Insecticidal activity against Spodoptera frugiperda (fall armyworm) assessed as mean length at 5 ug/ml in artificial diet measured after 7 days (reference value: 28 +/- 4.1 mg)
# [23] = system: Spodoptera frugiperda; experiment: Insecticidal activity against Spodoptera frugiperda (fall armyworm) assessed as mean weight gain at 10 ug/ml in artificial diet measured after 7 days (reference value: 469.5 +/- 6.59 mg)
# [24] = system: Spodoptera frugiperda; experiment: Insecticidal activity against Spodoptera frugiperda (fall armyworm) assessed as mean weight gain at 15 ug/ml in artificial diet measured after 7 days (reference value: 469.5 +/- 6.59 mg)
# [25] = system: Spodoptera frugiperda; experiment: Insecticidal activity against Spodoptera frugiperda (fall armyworm) assessed as mean weight gain at 25 ug/ml in artificial diet measured after 7 days (reference value: 469.5 +/- 6.59 mg)
# [26] = system: Spodoptera frugiperda; experiment: Insecticidal activity against Spodoptera frugiperda (fall armyworm) assessed as mean weight gain at 39 ug/ml in artificial diet measured after 7 days (reference value: 469.5 +/- 6.59 mg)
# [27] = system: Spodoptera frugiperda; experiment: Insecticidal activity against Spodoptera frugiperda (fall armyworm) assessed as mean weight gain at 52 ug/ml in artificial diet measured after 7 days (reference value: 469.5 +/- 6.59 mg)
# [28] = system: Spodoptera frugiperda; experiment: Insecticidal activity against Spodoptera frugiperda (fall armyworm) assessed as mean weight gain at 52 ug/ml in artificial diet measured after 7 days (reference value: 75.5 +/- 8.24 mg)
# [29] = system: Spodoptera frugiperda; experiment: Insecticidal activity against Spodoptera frugiperda (fall armyworm) assessed as mean weight gain at 39 ug/ml in artificial diet measured after 7 days (reference value: 75.5 +/- 8.24 mg)
# [30] = system: Spodoptera frugiperda; experiment: Insecticidal activity against Spodoptera frugiperda (fall armyworm) assessed as mean weight gain at 25 ug/ml in artificial diet measured after 7 days (reference value: 75.5 +/- 8.24 mg)
# [31] = system: Spodoptera frugiperda; experiment: Insecticidal activity against Spodoptera frugiperda (fall armyworm) assessed as mean weight gain at 15 ug/ml in artificial diet measured after 7 days (reference value: 75.5 +/- 8.24 mg)
# [32] = system: Spodoptera frugiperda; experiment: Insecticidal activity against Spodoptera frugiperda (fall armyworm) assessed as mean weight gain at 10 ug/ml in artificial diet measured after 7 days (reference value: 75.5 +/- 8.24 mg)
# [33] = system: Spodoptera frugiperda; experiment: Insecticidal activity against Spodoptera frugiperda (fall armyworm) assessed as mean weight gain at 5 ug/ml in artificial diet measured after 7 days (reference value: 75.5 +/- 8.24 mg)
# [34] = system: Spodoptera frugiperda; experiment: Insecticidal activity against Spodoptera frugiperda (fall armyworm) assessed as mean length at 39 ug/ml in artificial diet measured after 7 days (reference value: 0.95 +/- 0.2 cm)
# [35] = system: Spodoptera frugiperda; experiment: Insecticidal activity against Spodoptera frugiperda (fall armyworm) assessed as mean length at 52 ug/ml in artificial diet measured after 7 days (reference value: 0.95 +/- 0.2 cm)
# [36] = system: Spodoptera frugiperda; experiment: Insecticidal activity against Spodoptera frugiperda (fall armyworm) assessed as mortality at 5 ug/ml in artificial diet measured after 7 days (reference value: 8.33%); details: 168 h
# [37] = system: Spodoptera frugiperda; experiment: Insecticidal activity against Spodoptera frugiperda (fall armyworm) assessed as mortality measured after 7 days; details: 168 h
# [38] = system: Spodoptera frugiperda; experiment: Insecticidal activity against Spodoptera frugiperda (fall armyworm) assessed as mortality at 52 ug/ml in artificial diet measured after 7 days (reference value: 8.33%); details: 168 h
# [39] = system: Spodoptera frugiperda; experiment: Insecticidal activity against Spodoptera frugiperda (fall armyworm) assessed as mortality at 39 ug/ml in artificial diet measured after 7 days (reference value: 8.33%); details: 168 h
# [40] = system: Spodoptera frugiperda; experiment: Insecticidal activity against Spodoptera frugiperda (fall armyworm) assessed as mortality at 25 ug/ml in artificial diet measured after 7 days (reference value: 8.33%); details: 168 h
# [41] = system: Spodoptera frugiperda; experiment: Insecticidal activity against Spodoptera frugiperda (fall armyworm) assessed as mortality at 15 ug/ml in artificial diet measured after 7 days (reference value: 8.33%); details: 168 h
# [42] = system: Spodoptera frugiperda; experiment: Insecticidal activity against Spodoptera frugiperda (fall armyworm) assessed as mortality at 10 ug/ml in artificial diet measured after 7 days (reference value: 8.33%); details: 168 h
# [43] = system: Spodoptera frugiperda; experiment: Insecticidal activity against Spodoptera frugiperda (fall armyworm) assessed as mean length at 25 ug/ml in artificial diet measured after 7 days (reference value: 0.95 +/- 0.2 cm)
# [44] = system: Spodoptera frugiperda; experiment: Insecticidal activity against Spodoptera frugiperda (fall armyworm) assessed as mean length at 15 ug/ml in artificial diet measured after 7 days (reference value: 0.95 +/- 0.2 cm)
# [45] = system: Spodoptera frugiperda; experiment: Insecticidal activity against Spodoptera frugiperda (fall armyworm) assessed as mean length at 10 ug/ml in artificial diet measured after 7 days (reference value: 0.95 +/- 0.2 cm)
# [46] = system: Spodoptera frugiperda; experiment: Insecticidal activity against Spodoptera frugiperda (fall armyworm) assessed as mean length at 5 ug/ml in artificial diet measured after 7 days (reference value: 0.95 +/- 0.2 cm)
smiles,measurement,setting,value
CC(=O)O[C@@H]1C[C@H]2C(C)(C)C(=O)C=C[C@]2(C)[C@H]2CC[C@@]3(C)[C@H](c4ccoc4)OC(=O)[C@H]4O[C@]43[C@@]21C [GEDUNIN],Activity,[1],2.9 mm
same,Activity,[2],2.6 mm
same,Activity,[3],2.1 mm
same,Activity,[4],16.12 mg
same,Activity,[5],16.7%
same,Activity,[6],4.17%
same,Activity,[7],16.7%
same,Activity,[8],4.17%
same,Time,[9],33 days
same,Time,[10],35 days
same,Time,[11],36 days
same,Activity,[12],17.9%
same,Time,[13],22 days
same,Time,[14],23 days
same,Time,[15],24 days
same,Activity,[16],147.9 mg
same,Activity,[17],122.4 mg
same,Activity,[18],52 mg
same,Activity,[19],20.8%
same,Activity,[20],2 mm
same,Activity,[21],2.1 mm
same,Activity,[22],2.6 mm
same,Activity,[23],4.95 mg
same,Activity,[24],3.61 mg
same,Activity,[25],3.45 mg
same,Activity,[26],2.8 mg
same,Activity,[27],2.2 mg
same,Activity,[28],1.9 mg
same,Activity,[29],2.3 mg
same,Activity,[30],3.4 mg
same,Activity,[31],3.6 mg
same,Activity,[32],4.9 mg
same,Activity,[33],6.12 mg
same,Activity,[34],0.25 cm
same,Activity,[35],0.2 cm
same,mortality at 5 µg/mL,[36],25%
same,LC50,[37],39 µg/mL
same,mortality at 52 µg/mL,[38],70.8%
same,mortality at 39 µg/mL,[39],48.3%
same,mortality at 25 µg/mL,[40],38.3%
same,mortality at 15 µg/mL,[41],33.3%
same,mortality at 10 µg/mL,[42],33.3%
same,Activity,[43],0.3 cm
same,Activity,[44],0.35 cm
same,Activity,[45],0.4 cm
same,Activity,[46],0.5 cm
